Data from ChEMBL document CHEMBL1141546, “Diamine derivatives containing imidazolidinylidene propanedinitrile as a new class of histamine H3 receptor antagonists. Part I” (Bioorg Med Chem Lett, 2008).

Columns and labels:
[1] = target: Histamine H4 receptor (Homo sapiens) (UniProt Q9H3N8); experiment: Displacement of [3H]histamine from human H4 receptor expressed in monkey COS7 cells at 1 uM; type: cell-based; conditions: COS-7
Histamine H3 receptor [2] = target: T1, Histamine H3 receptor (Rattus norvegicus, UniProt Q9QYN8); experiment: Displacement of [3H]N-alpha-methylhistamine from histamine H3 receptor in rat striatal membrane; type: cell membranes, Striatum
[3] = target: Histamine H1 receptor (Homo sapiens) (UniProt P35367); experiment: Displacement of [3H]pyrilamine from human H1 receptor expressed in monkey COS7 cells at 1 uM; type: cell-based; conditions: COS-7
[4] = target: Histamine H1 receptor (Homo sapiens) (UniProt P35367); experiment: Displacement of [3H]pyrilamine from human H1 receptor expressed in monkey COS7 cells at 10 uM; type: cell-based; conditions: COS-7
Histamine H3 receptor [5] = target: T2, Histamine H3 receptor (Homo sapiens, UniProt Q9Y5N1); experiment: Displacement of [3H]N-alpha-methylhistamine from human cloned histamine H3 receptor expressed in monkey COS7 cells; type: cell-based, COS-7
[6] = target: Histamine H4 receptor (Homo sapiens) (UniProt Q9H3N8); experiment: Displacement of [3H]histamine from human H4 receptor expressed in monkey COS7 cells at 10 uM; type: cell-based; conditions: COS-7
[7] = target: Histamine H2 receptor (Homo sapiens) (UniProt P25021); experiment: Displacement of [3H]tiotidine from human H2 receptor expressed in monkey COS7 cells at 10 uM; type: cell-based; conditions: COS-7
[8] = target: Histamine H3 receptor (Rattus norvegicus) (UniProt Q9QYN8); experiment: Displacement of [3H]N-alpha-methylhistamine from histamine H3 receptor in rat striatal membrane at 1 uM; type: cell membranes; conditions: Striatum
Histamine H3 receptor [9] = target: T2, Histamine H3 receptor; experiment: Displacement of [3H]N-alpha-methylhistamine from human cloned histamine H3 receptor expressed in monkey COS7 cells at 0.1 uM; type: cell-based; conditions: COS-7
[10] = target: Histamine H3 receptor (Rattus norvegicus) (UniProt Q9QYN8); experiment: Displacement of [3H]N-alpha-methylhistamine from histamine H3 receptor in rat striatal membrane at 0.1 uM; type: cell membranes; conditions: Striatum
Histamine H3 receptor [11] = target: T2, Histamine H3 receptor; experiment: Displacement of [3H]N-alpha-methylhistamine from human cloned histamine H3 receptor expressed in monkey COS7 cells at 1 uM; type: cell-based; conditions: COS-7
[12] = target: Histamine H2 receptor (Homo sapiens) (UniProt P25021); experiment: Displacement of [3H]tiotidine from human H2 receptor expressed in monkey COS7 cells at 1 uM; type: cell-based; conditions: COS-7
Histamine H3 receptor [13] = target: T1, Histamine H3 receptor; experiment: Antagonist activity at histamine H3 receptor in rat forebrain assessed as inhibition of [3H]histamine release from synaptosomes; type: functional, subcellular, Brain

T2 sequence (Q9Y5N1 whole entry): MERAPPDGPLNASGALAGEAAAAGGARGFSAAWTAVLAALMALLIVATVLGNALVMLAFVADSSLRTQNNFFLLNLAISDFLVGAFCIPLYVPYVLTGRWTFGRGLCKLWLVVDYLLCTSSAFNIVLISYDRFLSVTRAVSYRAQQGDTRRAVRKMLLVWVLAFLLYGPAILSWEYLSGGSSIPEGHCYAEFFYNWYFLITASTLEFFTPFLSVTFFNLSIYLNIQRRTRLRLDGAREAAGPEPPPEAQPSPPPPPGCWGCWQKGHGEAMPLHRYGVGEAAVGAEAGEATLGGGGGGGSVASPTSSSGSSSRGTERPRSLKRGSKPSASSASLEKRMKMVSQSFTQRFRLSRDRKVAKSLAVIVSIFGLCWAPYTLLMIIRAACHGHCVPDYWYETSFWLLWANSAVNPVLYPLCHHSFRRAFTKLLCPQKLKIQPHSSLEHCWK
Histamine H1 receptor (Homo sapiens), sequence (P35367 whole entry): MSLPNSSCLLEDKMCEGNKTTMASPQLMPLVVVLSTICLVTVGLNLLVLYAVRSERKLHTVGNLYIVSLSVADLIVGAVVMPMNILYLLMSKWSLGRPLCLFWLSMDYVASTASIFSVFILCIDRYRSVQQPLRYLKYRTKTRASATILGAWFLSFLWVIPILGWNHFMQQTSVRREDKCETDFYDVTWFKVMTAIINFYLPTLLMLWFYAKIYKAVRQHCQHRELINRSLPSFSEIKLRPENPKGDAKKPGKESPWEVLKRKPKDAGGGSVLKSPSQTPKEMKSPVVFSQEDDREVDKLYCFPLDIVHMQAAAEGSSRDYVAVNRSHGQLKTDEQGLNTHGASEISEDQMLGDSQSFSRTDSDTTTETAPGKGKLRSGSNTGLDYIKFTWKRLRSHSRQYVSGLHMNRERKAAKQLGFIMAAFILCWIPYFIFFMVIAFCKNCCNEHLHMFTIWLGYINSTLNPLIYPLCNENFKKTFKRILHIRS
Histamine H2 receptor (Homo sapiens), sequence (P25021 whole entry): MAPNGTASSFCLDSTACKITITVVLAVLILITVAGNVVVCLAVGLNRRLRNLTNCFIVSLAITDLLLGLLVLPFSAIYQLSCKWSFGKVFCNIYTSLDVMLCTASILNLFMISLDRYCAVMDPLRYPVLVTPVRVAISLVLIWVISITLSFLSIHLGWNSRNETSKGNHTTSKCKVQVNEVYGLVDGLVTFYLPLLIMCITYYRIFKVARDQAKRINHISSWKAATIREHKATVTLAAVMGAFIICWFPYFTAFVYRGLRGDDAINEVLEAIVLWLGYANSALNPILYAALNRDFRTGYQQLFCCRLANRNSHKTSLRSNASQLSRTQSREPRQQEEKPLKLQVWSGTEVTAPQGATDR
Histamine H3 receptor (Rattus norvegicus), sequence (Q9QYN8 whole entry): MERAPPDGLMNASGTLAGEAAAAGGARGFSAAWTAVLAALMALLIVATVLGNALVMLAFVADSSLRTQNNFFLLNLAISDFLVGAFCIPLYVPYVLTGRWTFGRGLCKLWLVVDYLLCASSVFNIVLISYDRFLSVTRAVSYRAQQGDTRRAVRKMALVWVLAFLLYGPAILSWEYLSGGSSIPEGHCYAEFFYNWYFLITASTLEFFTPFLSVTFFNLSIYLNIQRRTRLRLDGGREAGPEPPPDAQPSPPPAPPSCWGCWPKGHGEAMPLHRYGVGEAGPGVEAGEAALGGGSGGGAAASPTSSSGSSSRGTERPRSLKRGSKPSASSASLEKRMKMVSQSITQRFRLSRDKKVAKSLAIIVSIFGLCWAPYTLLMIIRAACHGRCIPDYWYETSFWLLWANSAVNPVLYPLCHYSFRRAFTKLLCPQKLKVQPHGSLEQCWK
T1 sequence (Q9QYN8 whole entry): as above

| Structure (SMILES) | inhibition [1] [%] | Ki (Histamine H3 receptor [2]) [nM] | inhibition [3] [%] | inhibition [4] [%] | Ki (Histamine H3 receptor [5]) [nM] | inhibition [6] [%] | inhibition [7] [%] | inhibition [8] [%] | inhibition (Histamine H3 receptor [9]) [%] | inhibition [10] [%] | inhibition (Histamine H3 receptor [11]) [%] | inhibition [12] [%] | IC50 (Histamine H3 receptor [13]) [nM] |
| --- | --- | --- | --- | --- | --- | --- | --- | --- | --- | --- | --- | --- | --- |
| C[C@@H]1CCCN1CCN1CCN(CCN2CCC[C@@H]2C)C1=C(C#N)C#N | 6 | 0.77 | -3 | 7 | 0.47 | -3 | -9 | – | – | – | – | – | – |
| N#CC(C#N)=C1N(CCCCN2CCCCC2)CCN1CCCN1CCCCC1 | – | – | – | – | – | – | – | 88 | 48 | 65 | 74 | – | – |
| N#CC(C#N)=C1N(CCCCN2CCCCC2)CCN1CCN1CCCCC1 | – | 8.6 | – | – | 16 | – | – | – | – | – | – | – | – |
| N#CC(C#N)=C1N(CCCCN2CCCCC2)CCN1CCCCN1CCCCC1 | – | – | – | – | – | – | – | 85 | 43 | 51 | 68 | – | – |
| CN1CCN(CCN2CCN(CCN3CCCCC3)C2=C(C#N)C#N)CC1 | – | – | – | – | – | – | – | 82 | 37 | 43 | 74 | – | – |
| N#CC(C#N)=C1N(CCN2CCCCC2)CCN1CCN1CCCCC1 | – | 55 | – | – | 24 | – | – | – | – | – | – | – | – |
| N#CC(C#N)=C1N(CCCN2CCCCC2)CCN1CCN1CCCCC1 | – | 6.3 | – | – | 6.6 | – | – | – | – | – | – | – | – |
| C[C@@H]1CCCN1CCN1CCN(CCN2CCC[C@H]2C)C1=C(C#N)C#N | 9 | 1.1 | 0 | -4 | 1.3 | 8 | -1 | – | – | – | – | -7 | – |
| c1cc(OCCCN2CCCCC2)ccc1CN1CCCCC1 [JNJ-5207852] | – | 1.26 | – | – | – | – | – | – | – | – | – | – | – |

More lines, now with the values ahead:

| inhibition [1] [%] | Ki (Histamine H3 receptor [2]) [nM] | inhibition [3] [%] | inhibition [4] [%] | Ki (Histamine H3 receptor [5]) [nM] | inhibition [6] [%] | inhibition [7] [%] | inhibition [8] [%] | inhibition (Histamine H3 receptor [9]) [%] | inhibition [10] [%] | inhibition (Histamine H3 receptor [11]) [%] | inhibition [12] [%] | IC50 (Histamine H3 receptor [13]) [nM] | Structure (SMILES) |
| --- | --- | --- | --- | --- | --- | --- | --- | --- | --- | --- | --- | --- | --- |
| 9 | 0.48 | 8 | 14 | 0.34 | 0 | -2 | – | – | – | – | 2 | 1.9 | C[C@H]1CCCN1CCN1CCN(CCN2CCC[C@@H]2C)C1=C(C#N)C#N |
| – | 690 | – | – | 36 | – | – | – | – | – | – | – | – | N#CC(C#N)=C1N(CCCN2CCCCC2)CCN1Cc1cccc2ccccc12 |
| 11 | 2.6 | 3 | 21 | 2.4 | -1 | -4 | – | – | – | – | -5 | 28 | N#CC(C#N)=C1N(CCCN2CCCCC2)CCN1CCCN1CCCCC1 |
| – | – | – | – | – | – | – | 86 | 49 | 57 | 70 | – | – | N#CC(C#N)=C1N(CCN2CCCCC2)CCN1CCN1CCC(O)C1 (racemic) |
| -8 | 0.68 | 10 | 21 | 0.33 | -7 | 0 | – | – | – | – | 1 | 4.9 | CC1CCCN1CCN1CCN(CCN2CCCC2C)C1=C(C#N)C#N (racemic) |
| 2 | 0.69 | 5 | 9 | 0.38 | 6 | -4 | – | – | – | – | -8 | – | CC1CCCN1CCN1CCN(CCN2CCCCC2)C1=C(C#N)C#N (racemic) |
| – | 75 | – | – | 83 | – | – | – | – | – | – | – | – | CCN(CCCN(C)C)CCN1CCN(Cc2cccc3ccccc23)C1=C(C#N)C#N |
| – | – | – | – | – | – | – | 82 | 37 | 44 | 69 | – | – | N#CC(C#N)=C1N(CCN2CCCCC2)CCN1CCN1CCOCC1 |
